Here are results for 14 molecules from publication PMC11079024, “Identification of a family of species-selective complex I inhibitors as potential anthelmintics” (Nature Communications, 2024).

SMILES strings stand for the structures. “And” between values parts separate entries of the source, which are not always exact repeats. Equal values may be shown once. Read-outs that look alike come from different tables or passages of the source.

Series [1] concerns L1 wild-type C. elegans. To be noted: caenorhabditis elegans.
Series [2] relates to C. elegans. The series can be described thus: C. elegans chemical screens of RIKEN NPD libraries at 50 μM (hit identification in KCN survival and development/viability assays). In kind it is cell-based, Caenorhabditis elegans.
Series [3] relates to adult H. polygyrus. In kind it is cell-based, Heligmosomoides polygyrus. To be noted: for Worm viability score, individual worms (Worm1-Worm20): scale from 0 (dead) to 3 (motile). The procedure:
(§1) After either 24- or 72 h chemical treatment, worm viability was manually scored by an examiner using a scale from 0 (dead) to 3 (motile); DMSO was used as a negative control in both 24- and 72 h treatments. The percentage of affected worms (i.e., worms with a score equal to or lower than 1.5) in each biological replicate is shown; data are from two biological replicates. Within each boxplot, black horizontal lines denote group medians, boxes span from the 25th to the 75th percentile of each group’s distribution, and whiskers extend to the maximum and minimum values.
The eleven benzimidazole derivatives were tested at a concentration of 10 µM under aerobic conditions against L3 and adult H. polygyrus.
For the larval assay, mice feces were collected 2 weeks post-infection and eggs were isolated. The eggs were left on agar at room temperature in the dark for eight to 10 days to allow them to develop into L3. Next, 30–40 L3 were incubated (37 °C, 5% CO2) in the culture medium (RPMI 1640 medium + 1% pen./strep. + 5% amphotericin B) containing the derivatives in 96-well plate (Corning, USA) reaching a final volume of 250 µL for 24 h. For the adult drug screening assay, female NMRI mice were euthanized with CO2 and adult H. polygyrus were dissected out of the intestines. Subsequently, three worms were exposed to the culture medium (RPMI 1640 medium + 1% pen./strep. + 5% amphotericin B) with the derivatives (2 mL) in a 24-well plate (Corning, USA) for either 24 or 72 h. DMSO ( < 1%) served as a negative control in both assays. All conditions were tested in duplicates. Finally, 80 µL of hot water ( ~ 80 °C) for L3 and 500 µL of hot water (~80 °C) for adults were added to the wells to check for their viability under a microscope (Carl Zeiss, Germany). Larvae were categorized as being either alive or dead, depending on whether they moved or not. […] The whole experiment was performed two times i.e., two independent biological replicates for both life stages (L3s and adults) and exposure times (24 and 72 h).

For series [4], the system named is adult H. polygyrus. The series can be described thus: microbe, parasite or virus in culture. In kind it is cell-based, Heligmosomoides polygyrus. To be noted: anaerobic, 24 hours after treatment; for Percent Worms Affected: adult H. polygyrus, affected = score equal to or lower than 1.5; for # of Worms Affected: worms with score equal to or lower than 1.5; for Worm viability score, individual worms (Worm1-Worm20): scale from 0 (dead) to 3 (motile). As to the method: To investigate the impact of the eleven benzimidazole derivatives under anaerobic conditions, an anaerobic chamber with an integrated incubator (Coy Laboratory Products, USA) was used. The same procedure was followed as described for the aerobic drug screening in adult H. polygyrus, but the incubation took place within the anaerobic chamber (37 °C, 85% N2, 10% CO2, 5% H2). Benzimidazole derivatives were tested at a concentration of 10 µM. For scoring, the plates had to be removed from the anaerobic chamber. The whole experiment was performed two times i.e., two independent biological replicates.
as §1, with “The activities of eleven benzimidazole derivatives were tested against adult H. polygyrus viability in vitro under aerobic (+, white boxplots) and anaerobic (–, coloured boxplots) conditions (see Methods). After” for “After”, “24-hour” for “either 24- or 72 h”, “aerobic” for “24-”, “anaerobic conditions; levamisole was used as a positive control in anaerobic conditions.” for “72 h treatments.”, “values. […]” for “values.”

In series [5] the test system is HEK293 cells. As to conditions: read-out: HEK293 Cell Viability Assay LC50; 2 days exposure.
Setting [6] is: screened at 50 μM in triplicate, hit = modified z-score < −3, KCN = KCN survival assay, Dev. & Viability = development/viability assay.
The mark [7] stands for this setting: adult H. polygyrus, in vitro, aerobic, 24 hours, per biological replicate.
Where [8] appears, read: adult H. polygyrus, in vitro, aerobic, 72 hours, per biological replicate.
Where [9] appears, read: screened at 50 μM in triplicate, […], KCN = KCN survival assay, Dev. & Viability = development/viability assay.

In the case of `Cc1nc2ccc(Br)cc2c2c1CC(C)O2` (racemic) [NP974], in series [1], the LC50 – broadly, the concentration lethal to half of the exposed cells or organisms – worked out at 19 µM. Moreover, in series [2] (setting [6]), the “Hit Type” value is given as “KCN/Dev. & Viability”.
The matching figures for `Cc1nc2ccc(Br)cc2c2c1CC(C(C)(Cl)Br)O2` (racemic) [NPD10211]: 14.5 µM and “KCN/Dev. & Viability”.
As for `CC(C)Cc1ccc(C(C)c2nc3ccccc3n2C)cc1` (racemic) [NPD87890], the “Worm viability score of individual worm, scale from 0 (dead) to 3 (motile)” value in series [3] was 1 and 0.5; in series [3] (adult H. polygyrus, in vitro, aerobic, 24 hours, single worms), 2 (2×) and 2.5 and 1.5 and 1 and 1.25 (5×); in series [3] (adult H. polygyrus, in vitro, aerobic, 72 hours, single worms), 2 and 1.5 and 1 (2×) and 0.5 and 0.75 (3×). Besides, the “Percent Worms Affected” value in series [3] (adult H. polygyrus, aerobic, replicate 1, 24 hours after treatment, affected = score equal to or lower than 1.5) was determined as 100%; in series [4] (replicate 1), 100%; in series [4] (replicate 2), 100%. Moreover, the “# of Worms Affected” value in series [3] (setting [7]) is 3 and 6; in series [3] (setting [8]), 5 and 6; in series [3] (aerobic, replicate 1, 24 hours after treatment, worms with score equal to or lower than 1.5) it was 6; in series [3] (aerobic, replicate 2, 24 hours after treatment, worms with score equal to or lower than 1.5) it was 3; in series [4] (replicate 1), 6; in series [4] (replicate 2), 6. Besides, the “Percent Worms Affected (worms with a score equal to or lower than 1.5)” value is 50% and 100% in series [3] (setting [7]); 83% and 100% in series [3] (setting [8]). In addition, the “Worm viability score, individual worms (Worm1-Worm20)” value in series [3] (aerobic, replicate 1, 24 hours after treatment) was 1.25 (5×) and 1; in series [3] (aerobic, replicate 2, 24 hours after treatment) it was 2 (2×) and 2.5 and 1 (2×) and 1.5; in series [4] (replicate 1) it was 0.5 (3×) and 0 (2×) and 1; in series [4] (replicate 2), 1.5 and 1 (5×).
Take `COc1cccc2c1cc([N+](=O)[O-])c1c(C(=O)O)cc3c(c12)OCO3` [Aristolochic acid, reference compound]: the “Hit Type” value in series [2] is on record as “Dev. & Viability”.
`CC[C@@]1(O)C(=O)OCc2c1cc1n(c2=O)Cc2cc3ccccc3nc2-1` [Camptothecin, reference compound]: in series [2] (setting [9]), the “Hit Type” value is “Dev. & Viability”.
`O=C(CCCN1C(=O)c2cccc3cccc(c23)C1=O)N1CCN(Cc2ccc3c(c2)OCO3)CC1` [HTD0465]: in series [5], the CC50 stood at 20.5 µM. Further, the “Hit Type” value in series [2] (setting [6]) is “Dev. & Viability”.
Turning to `Cc1ccc(N=c2cc(-c3ccc4c(c3)OCO4)oc3ccccc23)cc1C` [NPD601], the LC50 in series [1] turned out to be 13.6 µM. For the same molecule, the “Hit Type” value in series [2] (setting [6]) was “KCN”.
Take `CC1(C#CCN2CCCCCC2)CCC2C(O1)c1ccccc1OC2(C)C` (stereo not drawn) [NPD5219]: the CC50 in series [5] came out at 14.8 µM. The “Hit Type” value in series [2] (setting [6]) is listed as “Dev. & Viability”.
As to `COc1ccc(N=c2cc(-c3ccc(OC)c(OC)c3)oc3ccccc23)c(OC)c1` [NPD6383], in series [1], the LC50 turned out to be 22.2 µM. The “Hit Type” value in series [2] (setting [6]) is reported as “KCN”.
The matching figures for `COc1ccccc1/C=C/C(=O)c1cc(C)ccc1O` [NPD8582]: 14.7 µM and “KCN”.
Regarding `COC(=O)Nc1nc2ccc(C(=O)c3cccs3)cc2[nH]1` [Nocodazole, reference compound], the “Hit Type” value in series [2] (setting [9]) is “Dev. & Viability”.
Still for that read-out and setting: the value for `CCCC[C@@]1(OC(=O)CCC(=O)O)CC[C@]2(CC[C@H](C)[C@@H](C/C=C(C)/C=C/[C@H](O)[C@@H](C)/C=C/C(=O)O)O2)O[C@H]1/C=C/C(C)=C/C(=O)O` [Reveromycin A, reference compound] was “Dev. & Viability”.
For `CCc1ccc(-c2cc(C(=O)Nc3nccs3)c3ccccc3n2)cc1` [STK418118], the CC50 in series [5] was over 50 µM. In addition, the “Hit Type” value in series [2] (setting [6]) is reported as “Dev. & Viability”.
Regarding `CN[C@@H]1C[C@H]2O[C@@](C)([C@@H]1OC)n1c3ccccc3c3c4c(c5c6ccccc6n2c5c31)C(=O)NC4` [Staurosporine, reference compound], the “Hit Type” value in series [2] (setting [9]) is on record as “Dev. & Viability”.
